# Data published in patent publication US20240343727A1, “PYRIDAZINONE OR PYRIDINONE COMPOUNDS, PREPARATION METHODS AND USES THEREOF” (InventisBio Co., Ltd., priority 2021, published 2024).
# Target: T1, PARP7 (Homo sapiens, UniProt Q7Z3E1)
# T1 sequence (Q7Z3E1 1-657): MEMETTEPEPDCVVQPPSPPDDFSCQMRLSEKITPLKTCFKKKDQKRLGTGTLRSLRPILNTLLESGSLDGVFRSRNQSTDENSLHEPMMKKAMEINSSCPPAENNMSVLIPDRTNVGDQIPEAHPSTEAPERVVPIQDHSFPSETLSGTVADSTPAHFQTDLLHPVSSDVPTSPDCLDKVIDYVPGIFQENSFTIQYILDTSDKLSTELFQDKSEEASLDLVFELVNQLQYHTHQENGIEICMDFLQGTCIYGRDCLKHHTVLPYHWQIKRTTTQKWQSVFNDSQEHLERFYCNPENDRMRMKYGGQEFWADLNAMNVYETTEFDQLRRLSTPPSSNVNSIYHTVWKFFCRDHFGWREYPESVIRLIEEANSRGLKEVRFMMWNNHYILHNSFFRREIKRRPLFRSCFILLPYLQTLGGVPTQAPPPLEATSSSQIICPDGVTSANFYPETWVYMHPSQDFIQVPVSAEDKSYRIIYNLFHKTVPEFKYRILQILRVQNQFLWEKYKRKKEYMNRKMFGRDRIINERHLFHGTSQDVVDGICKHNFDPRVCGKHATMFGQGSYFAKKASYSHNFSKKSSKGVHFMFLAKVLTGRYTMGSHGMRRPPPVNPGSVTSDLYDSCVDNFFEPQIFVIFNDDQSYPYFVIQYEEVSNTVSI
# Assay: PARP7 TR-FRET assay (binding, displacement of biotinylated Probe A)
# Settings: 6 nM PARP7, 2 nM Probe A, 25° C., 30 min
# Protocol: Biological Assay Example A: PARP7 TR-FRET Assay
# A time-resolved fluorescence energy transfer (TR-FRET) assay was used to test binding activity of compounds to PARP7. Two microliter test compound was added in 384-well plate. Reactions were performed in a 6 uL volume by adding 4 uL mixture of PARP7 and Probe A (a biotinylated probe binding to the PARP7: N-(6-(2-(4-((2-(6-oxo-5-(trifluoromethyl)-1,6-dihydropyridazin-4-yl) isoindolin-5-yl) oxy) piperidin-1-yl) acetamido) hexyl)-5-((3aS,4S,6aR)-2-oxohexahydro-1H-thieno [3,4-d]imidazol-4-yl) pentanamide, made as reported in WO2019212937A1) in assay buffer (20 mM HEPES pH 8.0, 100 mM NaCl, 0.1% BSA, 2 mM DTT and 0.002% Tween20). The final concentration of PARP7 and Probe A were 6 nM and 2 nM, incubating with test compounds at 25° C. for 30 min. Four microliter ULight-anti 6xHis and LANCE Eu-W1024 labeled streptavidin (PerkinElmer) were added with the final concentration of ULight-anti 6xHis and LANCE Eu-W1024 at 4 nM and 0.25 nM. The reaction mixture was incubated at 25° C. for 30 min. The plate was read on a Tecan Spark plate reader (excitation wavelength at 320 nm, emission wavelength at 615 nm and 665 nm with a 90 us delay. The ratio of the 665/615 nm emission was calculated for each well to the amount of complex of PARP7 and Probe A in each well was calculated. The 0.25% DMSO vehicle was used as control and no PARP7 well was as blank well. Inhibition rate is calculated with the formula of % inhibition=100-100*(TRFcmpd-TRFblank)/(TRFcontrol−TRFblank). Inhibition IC50 is calculated with the equation of Y=Bottom+ (Top-Bottom)/(1+10^((LogIC50−X) *Hill Slope))
row,SMILES,IC50 [µM]
1,"N#Cc1ccc(N2CCN(C(=O)CC3CN(c4cc(C(F)(F)F)c(=O)[nH]n4)c4cc(Cl)ccc4O3)CC2)nc1 (single isomer, unassigned) [Compound 224]",< 0.1
2,"N#Cc1ccc(N2CCN(C(=O)CC3CN(c4cc(C(F)(F)F)c(=O)[nH]n4)c4cc(Cl)ccc4O3)CC2)nc1 (single isomer, unassigned) [Compound 225]",0.1 to 1
3,"N#Cc1ccc(N2CCN(C(=O)CC3CN(c4cc(C(F)(F)F)c(=O)[nH]n4)c4cc(C#N)ccc4O3)CC2)nc1 (single isomer, unassigned) [Compound 230]",0.1 to 1
4,"C#Cc1cnc(N2CCN(C(=O)CC3CN(c4cc(C(F)(F)F)c(=O)[nH]n4)c4cc(C#N)ccc4O3)CC2)nc1 (single isomer, unassigned) [Compound 235]",< 0.1
5,"O=C(CC1CN(c2n[nH]c(=O)c3cc(Cl)cc(F)c23)CCO1)N1CCN(c2ncc(C(F)(F)F)cn2)CC1 (single isomer, unassigned) [Compound 240]",0.1 to 1
6,"O=C(CC1CN(c2n[nH]c(=O)c3cc(Cl)cc(F)c23)CCO1)N1CCN(c2ncc(C(F)(F)F)cn2)CC1 (single isomer, unassigned) [Compound 241]",> 1
7,"N#Cc1ccc2c(=O)[nH]nc(N3CCOC(CC(=O)N4CCN(c5ncc(C(F)(F)F)cn5)CC4)C3)c2c1 (single isomer, unassigned) [Compound 244]",0.1 to 1
8,"N#Cc1ccc2c(=O)[nH]nc(N3CCOC(CC(=O)N4CCN(c5ncc(C(F)(F)F)cn5)CC4)C3)c2c1 (single isomer, unassigned) [Compound 245]",< 0.1
9,"O=C(CC1CN(c2n[nH]c(=O)c3ccc(N4CCCC4)cc23)CCO1)N1CCN(c2ncc(C(F)(F)F)cn2)CC1 (single isomer, unassigned) [Compound 258]",< 0.1
10,"Cn1ccc(-c2ccc3c(=O)[nH]nc(N4CCOC(CC(=O)N5CCN(c6ncc(C(F)(F)F)cn6)CC5)C4)c3c2)n1 (single isomer, unassigned) [Compound 259]",< 0.1
11,"COCc1ccc2c(c1)N(c1cc(C(F)(F)F)c(=O)[nH]n1)CC(CC(=O)N1CCN(c3ncc(C(F)(F)F)cn3)CC1)O2 (single isomer, unassigned) [Compound 267]",< 0.1
12,"N#Cc1ccc(N2CCN(C(=O)CC3CN(c4cc(C(F)(F)F)c(=O)[nH]n4)c4cc(F)ccc4O3)CC2)nc1 (single isomer, unassigned) [Compound 268]",< 0.1
13,"N#Cc1ccc(N2CCN(C(=O)CC3CN(c4cc(C(F)(F)F)c(=O)[nH]n4)c4cc(F)ccc4O3)CC2)nc1 (single isomer, unassigned) [Compound 269]",0.1 to 1
14,"CS(=O)(=O)Cc1ccc2c(c1)N(c1cc(C(F)(F)F)c(=O)[nH]n1)CC(CC(=O)N1CCN(c3ncc(C(F)(F)F)cn3)CC1)O2 (single isomer, unassigned) [Compound 270]",< 0.1
15,"CS(=O)(=O)Cc1ccc2c(c1)N(c1cc(C(F)(F)F)c(=O)[nH]n1)CC(CC(=O)N1CCN(c3ncc(C(F)(F)F)cn3)CC1)O2 (single isomer, unassigned) [Compound 271]",< 0.1
16,"O=C(CC1CN(c2cc(C(F)(F)F)c(=O)[nH]n2)c2cc(N3CCOCC3=O)ccc2O1)N1CCN(c2ncc(C(F)(F)F)cn2)CC1 (single isomer, unassigned) [Compound 281]",< 0.1
17,"O=C(CC1CN(c2cc(C(F)(F)F)c(=O)[nH]n2)c2cc(N3CCOCC3=O)ccc2O1)N1CCN(c2ncc(C(F)(F)F)cn2)CC1 (single isomer, unassigned) [Compound 282]",< 0.1
18,"COCC(=O)Nc1ccc2c(c1)N(c1cc(C(F)(F)F)c(=O)[nH]n1)CC(CC(=O)N1CCN(c3ncc(C(F)(F)F)cn3)CC1)O2 (single isomer, unassigned) [Compound 283]",< 0.1
19,"COCC(=O)Nc1ccc2c(c1)N(c1cc(C(F)(F)F)c(=O)[nH]n1)CC(CC(=O)N1CCN(c3ncc(C(F)(F)F)cn3)CC1)O2 (single isomer, unassigned) [Compound 284]",0.1 to 1
20,"O=C(CC1CN(c2cc(C(F)(F)F)c(=O)[nH]n2)c2ccccc2O1)N1CCN(c2ccc(C3CC3)cn2)CC1 (single isomer, unassigned) [Compound 285]",< 0.1
21,"O=C(CC1CN(c2cc(C(F)(F)F)c(=O)[nH]n2)c2ccccc2O1)N1CCN(c2ccc(C3CC3)cn2)CC1 (single isomer, unassigned) [Compound 286]",> 1
22,"O=C(CC1CN(c2cc(C(F)(F)F)c(=O)[nH]n2)c2ccccc2O1)N1CCN(c2nnc(C(F)(F)F)s2)CC1 (single isomer, unassigned) [Compound 287]",0.1 to 1
23,"O=C(CC1CN(c2cc(C(F)(F)F)c(=O)[nH]n2)c2ccccc2O1)N1CCN(c2nnc(C(F)(F)F)s2)CC1 (single isomer, unassigned) [Compound 288]",> 1
24,"O=C(CC1CN(c2cc(C(F)(F)F)c(=O)[nH]n2)c2ccccc2O1)N1CCn2c(nnc2C(F)(F)F)C1 (single isomer, unassigned) [Compound 289]",> 1

# Second part, the compound after the results:
row,IC50 [µM],SMILES
1,0.1 to 1,"N#Cc1ccc(N2CCN(C(=O)CC3CN(c4cc(C(F)(F)F)c(=O)[nH]n4)c4ccccc4O3)CC2)nc1 (single isomer, unassigned) [Compound 222]"
2,< 0.1,"O=C(CC1CN(c2cc(C(F)(F)F)c(=O)[nH]n2)c2cc(C(F)F)ccc2O1)N1CCN(c2ncc(C(F)(F)F)cn2)CC1 (single isomer, unassigned) [Compound 227]"
3,< 0.1,"O=C(CC1CN(c2cc(C(F)(F)F)c(=O)[nH]n2)c2cc(C(F)F)ccc2O1)N1CCN(c2ncc(C(F)(F)F)cn2)CC1 (single isomer, unassigned) [Compound 228]"
4,< 0.1,"O=C(CC1CN(c2cc(C(F)(F)F)c(=O)[nH]n2)c2ccccc2O1)N1CCN(c2ccc(C(F)(F)F)cn2)CC1 (single isomer, unassigned) [Compound 246]"
5,0.1 to 1,"O=C(CC1CN(c2cc(C(F)(F)F)c(=O)[nH]n2)c2ccccc2O1)N1CCN(c2ccc(C(F)(F)F)cn2)CC1 (single isomer, unassigned) [Compound 247]"
6,< 0.1,"O=C(CC1CN(c2cc(C(F)(F)F)c(=O)[nH]n2)c2ccccc2O1)N1CCN(c2ncc(C(F)F)cn2)CC1 (single isomer, unassigned) [Compound 248]"
7,0.1 to 1,"O=C(CC1CN(c2cc(C(F)(F)F)c(=O)[nH]n2)c2ccccc2O1)N1CCN(c2ncc(C(F)F)cn2)CC1 (single isomer, unassigned) [Compound 249]"
8,< 0.1,"N#Cc1cnc(N2CCN(C(=O)CC3CN(c4cc(C(F)(F)F)c(=O)[nH]n4)c4ccccc4O3)CC2)nc1 (single isomer, unassigned) [Compound 250]"
9,0.1 to 1,"N#Cc1cnc(N2CCN(C(=O)CC3CN(c4cc(C(F)(F)F)c(=O)[nH]n4)c4ccccc4O3)CC2)nc1 (single isomer, unassigned) [Compound 251]"
10,0.1 to 1,"O=C(CC1CN(c2cc(C(F)(F)F)c(=O)[nH]n2)c2ccccc2O1)N1CCN(c2ccc(Cl)cn2)CC1 (single isomer, unassigned) [Compound 260]"
11,< 0.1,"O=C(CC1CN(c2cc(C(F)(F)F)c(=O)[nH]n2)c2ccccc2O1)N1CCN(c2ccc(Cl)cn2)CC1 (single isomer, unassigned) [Compound 261]"
12,< 0.1,"O=C(CC1CN(c2cc(C(F)(F)F)c(=O)[nH]n2)c2ccccc2O1)N1CCN(c2cnc(C(F)(F)F)cn2)CC1 (single isomer, unassigned) [Compound 262]"
13,0.1 to 1,"O=C(CC1CN(c2cc(C(F)(F)F)c(=O)[nH]n2)c2ccccc2O1)N1CCN(c2cnc(C(F)(F)F)cn2)CC1 (single isomer, unassigned) [Compound 263]"
14,< 0.1,"N#Cc1cnc(N2CCN(C(=O)CC3CN(c4cc(C(F)(F)F)c(=O)[nH]n4)c4cc(F)ccc4O3)CC2)nc1 (single isomer, unassigned) [Compound 264]"
15,0.1 to 1,"N#Cc1cnc(N2CCN(C(=O)CC3CN(c4cc(C(F)(F)F)c(=O)[nH]n4)c4cc(F)ccc4O3)CC2)nc1 (single isomer, unassigned) [Compound 265]"
